Results reported in patent publication US20100249175A1, “Dicationic compounds which selectively recognize G-quadruplex DNA” (priority 2005, published 2010).

What was measured:
[1] = tested on: human telomeric sequence d[AG3(T2AG3)3] (SEQ ID NO: 1); assay: Surface plasmon resonance, immobilized human telomeric DNA; format: binding
Experimental: (§1) Surface plasmon resonance (SPR) measurements were performed with a four-channel Biacore® 3000 optical biosensor system (Biacore International AB, Uppsala, Sweden). 5′-biotin labeled DNA was immobilized onto streptavidin-coated Biacore® SA sensor chips as previously described. See Lacy, E. R., et al., J. Amer. Chem. Soc., 124, 2153-2163 (2002); Mazur, S., et al., J. Mol. Biol., 300, 321-337 (2000); Nguyen, B., et al., Biopolymers, 63, 281-297 (2002); Wang, L., et at, Proc. Natl. Acad. Sci. USA, 97, 12-16 (2000); and Wang, L., et al., Biochemistry, 40, 2511-2521 (2001). Two flow cells were used to immobilize the
DNA oligomer samples, while a third cell was left blank as a control. The SPR studies were performed at 25° C. in a filtered, degassed, 10 mM HEPES buffer (pH 7.4) containing 200 mM KCl, 3 mM EDTA and 0.005% surfactant P20 (Biacore International AB). Compound solutions were prepared by serial dilutions from stock solution and injected from 7-mm plastic vials with pierceable plastic crimp caps.
Solutions of known concentration of 8 ranging from 2 nM to 10 μM were injected through the flow cells until a constant steady-state response was obtained. […] The instrument response (RU) in the steady-state region was determined by linear averaging over a 50 second time span. The predicted maximum response per bound compound in the steady-state region (RUmax) was determined from the DNA molecular weight, the amount of DNA on the flow cell, the compound molecular weight, and the refractive index gradient ratio of the compound and DNA, as previously described. […] To obtain the binding constants, the data were fitted to a two-site equilibrium model using KaleidaGraph (Synergy Software, Reading, Pa., United States of America) for nonlinear least square optimization of the binding parameters, where RUmax is the maximum response per bound compound and K1 and K2 are the macroscopic binding constants for a two-site binding model: […]
(§2) Surface plasmon resonance (SPR) was used to quantitatively evaluate the interaction between 8 and human telomeric DNA. […]

[2] = target: duplex hairpin d[[…]] (SEQ ID NO: 8); assay: Surface plasmon resonance, immobilized duplex hairpin DNA; format: binding; details: SPR, 25° C., HEPES buffer containing 200 mM KCl
Experimental: as §1
DNA oligomer samples, while a third cell was left blank as a control. […]
Solutions of known concentration of 8 ranging from 2 nM to 10 μM were injected through the flow cells until a constant steady-state response was obtained. […] The instrument response (RU) in the steady-state region was determined by linear averaging over a 50 second time span. The predicted maximum response per bound compound in the steady-state region (RUmax) was determined from the DNA molecular weight, the amount of DNA on the flow cell, the compound molecular weight, and the refractive index gradient ratio of the compound and DNA, as previously described. […]
as §2

human telomeric DNA = assay: Thermal melting (ΔTm) of human telomeric DNA; format: binding; details: HEPES buffer containing 50 mM KCl monitored at 295 nm (data not shown)
[3] = tested on: Trypanosoma brucei rhodesiense (T. b. r.); assay: In vitro antiprotozoal activity against T. b. r.; format: cell-based
Experimental: (§3) In vitro antiprotozoal activities were measured following established protocols. […] E., et al., Bioorg.

[4] = tested on: Plasmodium falciparum (P. f.); assay: In vitro antiprotozoal activity against P. f.; format: cell-based; details: in vitro, read-out: P.f. (IC50)
Experimental: as §3

[5] = tested on: Tetrahymena telomere, d[(T2G4)4] (SEQ ID NO: 4); assay: CD titration with Tetrahymena telomere; format: binding; details: HEPES buffer containing 50 mM KCl
Description: The oligonucleotides d[AG3(T2AG3)3] (SEQ ID NO: 1), d[AG3TG4AG3TG4A] (SEQ ID NO: 2), d[G4(T4G4)3] (SEQ ID NO: 3), d[(T2G4)4] (SEQ ID NO: 4), d[(GC)7] (SEQ ID NO: 5), d[[…]] (SEQ ID NO: 6), d[G2T2G2TGTG2T2G2] (SEQ ID NO: 7), d[[…]] (SEQ ID NO: 8), d[[…]] (SEQ ID NO: 9), d[[…]] (SEQ ID NO: 10), d[[…]] (SEQ ID NO: 11), d[TTAGGGT] (SEQ ID NO: 12), and d[TGGGGT] (SEQ ID NO: 13) were purchased with HPLC purification from Midland Certified Reagent Company (The Midland Certified Reagent Company, Inc., Midland, Tex., USA). The concentration of each DNA sample was determined spectrophotometrically at 260 nm using the nearest neighbor extinction coefficient.
Stock solutions of individual dicationic polyaryl compounds were prepared in double distilled water and diluted to working concentrations immediately before use with buffer. All measurements were performed at 20° C. in a 10 mM HEPES buffer (pH 7.4) containing 3 mM EDTA and 50 mM KCl, NaCl, or LiCl. Absorbance spectra were obtained on a Varian Cary 300 BIO UV-visible spectrophotometer (Varian, Inc., Palo Alto, Calif., United States of America) in a quartz cell with a 1 cm pathlength. CD spectra were recorded using a Jasco J-810 spectrapolarimeter (Jasco, Inc., Easton, Md., United States of America) in a 1-cm cell using an instrument scanning speed of 50 nm/min with a response time of 1 s. The spectra were averaged over four scans. […]

[6] = SPR, 25° C., HEPES buffer containing 200 mM KCl

## N=C(N)c1ccc(-c2ccc(-c3ccc(C(=N)N)o3)o2)cc1 [Compound 8, 5′-(4-Amidinophenyl)-2,2′-bifuran-5-carboxamidine]
[1]; SPR binding constants
  selectivity for the human telomeric quadruplex over the duplex DNA: approximately 4 fold
[1]; [6]
  K1, macroscopic binding constant, two-site model: 470000 M⁻¹
  K2, macroscopic binding constant, two-site model: 45000 M⁻¹
[2]
  K, binding constant for the single site: 130000 M⁻¹
Human telomeric DNA
  ΔTm: approximately 10 °C
[3]
  IC50: 12 nM
[4]
  IC50: 41.5 nM
[5]
  exciton splitting in CD spectra (in words): exhibited exciton splitting
